Results on 6 compounds are retold here after US20100204182A1, “ECTONUCLEOTIDASE INHIBITORS” (RHEINISCHE FRIEDRICH-WILHELMS-UNIVERSITAT BONN, priority 2006, published 2010).

For data set [1], the target named is T1, human NTPDase1 (Homo sapiens, UniProt P49961).
T1 sequence (P49961 1-510): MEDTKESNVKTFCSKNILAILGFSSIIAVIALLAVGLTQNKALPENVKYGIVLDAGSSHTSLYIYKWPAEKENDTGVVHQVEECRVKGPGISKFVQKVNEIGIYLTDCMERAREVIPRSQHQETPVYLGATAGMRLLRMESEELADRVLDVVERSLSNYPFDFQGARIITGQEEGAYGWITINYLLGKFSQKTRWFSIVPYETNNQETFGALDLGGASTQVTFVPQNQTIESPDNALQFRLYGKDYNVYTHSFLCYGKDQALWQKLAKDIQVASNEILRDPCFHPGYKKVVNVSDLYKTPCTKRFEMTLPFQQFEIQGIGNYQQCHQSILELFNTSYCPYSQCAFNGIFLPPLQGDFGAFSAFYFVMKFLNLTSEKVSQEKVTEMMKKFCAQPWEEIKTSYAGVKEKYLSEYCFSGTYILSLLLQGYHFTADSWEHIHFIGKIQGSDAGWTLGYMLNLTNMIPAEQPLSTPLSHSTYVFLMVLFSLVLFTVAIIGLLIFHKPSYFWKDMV
The experiment in a line: NTPDase inhibition assay by capillary electrophoresis (CE), NTPDase1. Type of data set: biochemical. Conditions: CE method, ATP 320 μM, Km 17 μM, read-out: NTPDase1 Ki [μM] ± SEM. The essentials:
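Recombinant or native human NTPDase was run with 320 μM ATP in Hepes buffer pH 7.4 (NaCl, KCl, MgCl2, CaCl2) at 37° C for 15 min, stopped by heating at 99° C. Products were quantified by capillary electrophoresis (UV 210 nm, UMP internal standard). IC50 from 6-8 concentrations was converted to Ki by Cheng-Prusoff.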

Data set [2] has as its target rP2Y6 (Rattus norvegicus, UniProt Q63371). Briefly: Inhibition of UDP binding at rP2Y6. Conditions: read-out: rP2Y6 % inhibition of UDP binding at 100 μM, n = 3, mean ± SEM.
Data set [3] has as its target hP2Y2 (Homo sapiens, UniProt P41231). The experiment in a line: Inhibition of UTP binding at hP2Y2. Conditions: read-out: hP2Y2 % inhibition of UTP binding at 100 μM, n = 3, mean ± SEM. On the procedure: (§1) In table 2 inhibition data of selected examples at human P2Y receptor subtypes were collected. It can be seen that no compound was identified that inhibited P2Y receptors at high concentrations of 100 μM and 10 μM, respectively.

Data set [4] deals with T2, human NTPDase2 (Homo sapiens, UniProt Q9Y5L3).
T2 sequence (Q9Y5L3 1-495): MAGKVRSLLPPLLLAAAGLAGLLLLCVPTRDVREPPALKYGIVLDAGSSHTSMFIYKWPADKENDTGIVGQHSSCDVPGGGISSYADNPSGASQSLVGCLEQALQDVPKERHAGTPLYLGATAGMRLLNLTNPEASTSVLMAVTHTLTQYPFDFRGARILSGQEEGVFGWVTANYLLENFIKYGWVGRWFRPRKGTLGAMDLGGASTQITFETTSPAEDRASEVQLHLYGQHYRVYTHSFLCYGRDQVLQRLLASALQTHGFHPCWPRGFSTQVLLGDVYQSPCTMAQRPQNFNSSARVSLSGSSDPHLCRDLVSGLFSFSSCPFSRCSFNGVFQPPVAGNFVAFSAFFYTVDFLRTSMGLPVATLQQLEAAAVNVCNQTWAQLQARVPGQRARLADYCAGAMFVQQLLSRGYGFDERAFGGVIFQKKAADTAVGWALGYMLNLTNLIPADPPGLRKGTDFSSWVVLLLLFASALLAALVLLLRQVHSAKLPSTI
Briefly: NTPDase inhibition assay by capillary electrophoresis (CE), NTPDase2. It is filed as biochemical. Conditions: for inhibition at 1000 µM: read-out: NTPDase2 inhibition (%) at 1 mM.

Data set [5] deals with hP2Y4 (Homo sapiens, UniProt P51582). The experiment in a line: Inhibition of UTP binding at hP2Y4. Conditions: read-out: hP2Y4 % inhibition of UTP binding at 100 μM, n = 3, mean ± SEM. How it is done: as §1
Chain of hP2Y4 (P51582 whole entry): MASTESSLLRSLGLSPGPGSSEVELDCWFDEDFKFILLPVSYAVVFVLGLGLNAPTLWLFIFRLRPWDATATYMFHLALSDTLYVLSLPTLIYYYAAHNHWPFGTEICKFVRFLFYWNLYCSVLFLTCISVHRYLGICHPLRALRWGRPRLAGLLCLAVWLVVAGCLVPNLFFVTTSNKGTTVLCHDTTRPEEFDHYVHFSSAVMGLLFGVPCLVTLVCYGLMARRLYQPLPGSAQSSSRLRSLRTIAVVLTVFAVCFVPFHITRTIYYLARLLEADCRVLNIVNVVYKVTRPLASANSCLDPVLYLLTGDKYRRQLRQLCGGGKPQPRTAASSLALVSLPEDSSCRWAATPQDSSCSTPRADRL
Data set [6] deals with hP2Y12 (Homo sapiens, UniProt Q9H244). The experiment in a line: Inhibition of [3H]PSB-0413 binding at hP2Y12. Conditions: mean ± SEM, read-out: hP2Y12 % Inhibition of [^3H]PSB-0413 Binding at 10 μM, n = 3. On the procedure:
as §1

Data set [7] relates to ecto-nucleotide pyrophosphatases (E-NPP). The settings on record: in words; cited from earlier work.
The target of data set [8] is T3, rat NTPDase3 (Rattus norvegicus, UniProt A6I415).
T3 sequence (A6I415 1-529): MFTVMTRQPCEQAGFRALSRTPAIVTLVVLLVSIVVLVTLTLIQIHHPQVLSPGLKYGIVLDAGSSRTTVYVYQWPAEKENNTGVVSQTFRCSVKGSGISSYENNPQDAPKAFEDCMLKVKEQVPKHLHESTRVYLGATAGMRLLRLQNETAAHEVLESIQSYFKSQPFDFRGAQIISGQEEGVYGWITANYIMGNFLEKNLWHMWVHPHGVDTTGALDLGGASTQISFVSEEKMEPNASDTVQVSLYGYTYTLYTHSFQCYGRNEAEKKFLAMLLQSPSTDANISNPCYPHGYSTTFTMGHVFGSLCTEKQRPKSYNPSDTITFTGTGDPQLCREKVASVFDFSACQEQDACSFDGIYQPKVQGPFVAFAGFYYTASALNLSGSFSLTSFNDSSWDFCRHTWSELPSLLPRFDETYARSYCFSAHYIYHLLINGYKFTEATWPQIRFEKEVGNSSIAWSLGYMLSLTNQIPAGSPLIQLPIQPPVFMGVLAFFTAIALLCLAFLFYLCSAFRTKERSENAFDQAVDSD
The experiment in a line: Rat NTPDase3 inhibition, in-capillary electrophoresis method (standard compounds). The settings on record: read-out: NTPDase3 Ki ± SEM. Type of data set: biochemical.

For data set [9], the target named is T4, rat NTPDase1 (Rattus norvegicus, UniProt P97687).
T4 sequence (P97687 1-511): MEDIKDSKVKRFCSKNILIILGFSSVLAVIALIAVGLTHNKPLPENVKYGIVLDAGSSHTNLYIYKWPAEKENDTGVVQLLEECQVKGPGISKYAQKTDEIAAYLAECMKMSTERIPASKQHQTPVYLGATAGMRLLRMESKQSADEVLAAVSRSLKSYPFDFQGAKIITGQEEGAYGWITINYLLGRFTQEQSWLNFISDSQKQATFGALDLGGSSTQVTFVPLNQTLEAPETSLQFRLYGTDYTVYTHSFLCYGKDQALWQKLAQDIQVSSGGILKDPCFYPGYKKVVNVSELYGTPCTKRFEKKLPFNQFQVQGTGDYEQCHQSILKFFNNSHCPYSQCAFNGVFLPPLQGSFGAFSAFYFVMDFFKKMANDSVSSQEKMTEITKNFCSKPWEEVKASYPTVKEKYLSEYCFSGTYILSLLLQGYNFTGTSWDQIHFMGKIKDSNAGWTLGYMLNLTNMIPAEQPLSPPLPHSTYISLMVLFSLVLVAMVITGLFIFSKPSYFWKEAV
Briefly: Rat NTPDase1 inhibition, in-capillary electrophoresis method (standard compounds). Type of data set: biochemical. The settings on record: read-out: NTPDase1 Ki ± SEM.

The target in data set [10] is T5, rat NTPDase2 (Rattus norvegicus, UniProt O35795).
T5 sequence (O35795 1-495): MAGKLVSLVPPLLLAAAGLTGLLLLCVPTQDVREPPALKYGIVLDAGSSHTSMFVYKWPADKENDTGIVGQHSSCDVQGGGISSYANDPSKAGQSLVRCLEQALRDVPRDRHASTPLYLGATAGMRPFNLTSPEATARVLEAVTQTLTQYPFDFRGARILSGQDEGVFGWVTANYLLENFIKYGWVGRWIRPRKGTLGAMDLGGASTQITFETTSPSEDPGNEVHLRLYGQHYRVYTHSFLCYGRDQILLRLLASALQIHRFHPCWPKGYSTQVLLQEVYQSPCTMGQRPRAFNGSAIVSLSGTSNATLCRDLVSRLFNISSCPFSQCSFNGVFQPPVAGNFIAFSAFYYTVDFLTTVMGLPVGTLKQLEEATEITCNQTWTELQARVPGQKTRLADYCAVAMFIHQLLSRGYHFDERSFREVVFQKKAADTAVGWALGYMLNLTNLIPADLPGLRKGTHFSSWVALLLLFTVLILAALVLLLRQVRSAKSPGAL
The experiment in a line: Rat NTPDase2 inhibition, in-capillary electrophoresis method (standard compounds). Type of data set: biochemical. Conditions: read-out: NTPDase2 Ki ± SEM.

The target in data set [11] is P2X1 (Homo sapiens, UniProt P51575). The settings on record: standard inhibitors; reference mark 15; read-out: P2X1 Ki ± SEM; cited from earlier work.
Chain of P2X1 (P51575 whole entry, species assumed): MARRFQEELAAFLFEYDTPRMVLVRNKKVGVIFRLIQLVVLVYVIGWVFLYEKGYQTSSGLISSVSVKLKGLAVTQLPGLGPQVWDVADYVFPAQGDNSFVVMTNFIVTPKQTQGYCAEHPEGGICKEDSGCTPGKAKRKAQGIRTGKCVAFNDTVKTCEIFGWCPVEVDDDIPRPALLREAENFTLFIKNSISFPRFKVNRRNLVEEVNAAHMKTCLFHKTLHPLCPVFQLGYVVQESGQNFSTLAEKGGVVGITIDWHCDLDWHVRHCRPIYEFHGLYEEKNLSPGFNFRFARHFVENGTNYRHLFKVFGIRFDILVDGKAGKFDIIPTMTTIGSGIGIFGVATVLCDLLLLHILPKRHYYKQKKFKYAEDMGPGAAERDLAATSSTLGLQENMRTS
The target of data set [12] is P2Y2 (Homo sapiens, UniProt P41231). Briefly: Potency of standard compounds at P2Y2 receptor. The settings on record: SEM not given.
Chain of P2Y2 (P41231 whole entry, species assumed): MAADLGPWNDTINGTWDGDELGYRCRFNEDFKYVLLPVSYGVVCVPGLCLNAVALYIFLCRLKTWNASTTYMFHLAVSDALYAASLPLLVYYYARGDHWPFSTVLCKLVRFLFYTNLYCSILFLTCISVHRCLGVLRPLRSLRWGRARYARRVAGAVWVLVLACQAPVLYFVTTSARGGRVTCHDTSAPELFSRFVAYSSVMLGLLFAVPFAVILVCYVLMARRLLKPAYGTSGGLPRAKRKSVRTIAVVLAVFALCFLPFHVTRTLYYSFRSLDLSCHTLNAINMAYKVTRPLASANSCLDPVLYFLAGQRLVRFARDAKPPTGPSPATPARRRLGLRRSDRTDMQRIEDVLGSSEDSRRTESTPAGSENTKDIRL
For data set [13], the target named is P2Y6 (Homo sapiens, UniProt Q15077). Briefly: Potency of standard compounds at P2Y6 receptor. Conditions: for Ki: standard compounds, SEM not given.
Chain of P2Y6 (Q15077 whole entry, species assumed): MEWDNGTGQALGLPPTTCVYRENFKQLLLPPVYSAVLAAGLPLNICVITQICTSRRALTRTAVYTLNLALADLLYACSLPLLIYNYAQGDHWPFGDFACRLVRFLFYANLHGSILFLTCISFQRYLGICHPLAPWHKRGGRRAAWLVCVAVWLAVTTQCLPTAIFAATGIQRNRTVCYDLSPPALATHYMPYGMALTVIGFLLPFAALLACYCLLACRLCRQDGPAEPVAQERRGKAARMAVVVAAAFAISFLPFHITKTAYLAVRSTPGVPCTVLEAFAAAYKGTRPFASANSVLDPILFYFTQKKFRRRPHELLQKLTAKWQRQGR
In data set [14] the target is P2Y4 (Homo sapiens, UniProt P51582). The experiment in a line: Potency of standard compounds at P2Y4 receptor.
Chain of P2Y4 (P51582 whole entry, species assumed): as the sequence (P51582 whole entry) above
Data set [15] addresses P2Y12 (Homo sapiens, UniProt Q9H244). Briefly: Potency of standard compounds at P2Y12 receptor. Conditions: SEM not given.
Data set [16] concerns the target P2X2 (Homo sapiens, UniProt Q9UBL9). The settings on record: standard inhibitors; reference mark 15; read-out: P2X2 Ki ± SEM; cited from earlier work.
The target of data set [17] is P2X3 (Homo sapiens, UniProt P56373). The settings on record: standard inhibitors; reference mark 15; read-out: P2X3 Ki ± SEM; cited from earlier work.
Chain of P2X3 (P56373 whole entry, species assumed): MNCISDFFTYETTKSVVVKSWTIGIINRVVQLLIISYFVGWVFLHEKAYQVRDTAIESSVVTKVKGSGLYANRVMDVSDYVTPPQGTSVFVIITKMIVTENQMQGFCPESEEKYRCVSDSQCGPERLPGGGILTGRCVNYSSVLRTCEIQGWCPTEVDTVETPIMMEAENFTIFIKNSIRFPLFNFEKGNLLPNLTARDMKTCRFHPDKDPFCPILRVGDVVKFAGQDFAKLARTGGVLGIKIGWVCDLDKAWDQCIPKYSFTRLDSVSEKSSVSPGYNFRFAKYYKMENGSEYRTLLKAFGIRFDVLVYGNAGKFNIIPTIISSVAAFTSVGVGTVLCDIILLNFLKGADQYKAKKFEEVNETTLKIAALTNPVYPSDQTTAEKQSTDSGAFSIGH
Data set [18] deals with P2X5 (Homo sapiens, UniProt Q93086). The settings on record: standard inhibitors; reference mark 15; read-out: P2X5 Ki ± SEM; cited from earlier work.
Chain of P2X5 (Q93086 whole entry, species assumed): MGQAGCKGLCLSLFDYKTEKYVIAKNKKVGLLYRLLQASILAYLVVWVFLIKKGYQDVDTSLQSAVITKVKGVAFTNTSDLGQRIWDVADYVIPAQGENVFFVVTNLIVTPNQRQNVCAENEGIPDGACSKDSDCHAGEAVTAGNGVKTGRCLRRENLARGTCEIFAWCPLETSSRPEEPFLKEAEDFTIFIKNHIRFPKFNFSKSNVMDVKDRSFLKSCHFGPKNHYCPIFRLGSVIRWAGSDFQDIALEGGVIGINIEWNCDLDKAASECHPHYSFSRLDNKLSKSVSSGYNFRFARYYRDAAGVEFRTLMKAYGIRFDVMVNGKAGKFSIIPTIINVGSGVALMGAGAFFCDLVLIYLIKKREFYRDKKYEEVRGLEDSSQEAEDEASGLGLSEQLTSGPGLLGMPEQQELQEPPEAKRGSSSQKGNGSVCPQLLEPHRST
Where [19] appears, read: standard compounds, SEM not given.

Chain of hP2Y12 (Q9H244 whole entry): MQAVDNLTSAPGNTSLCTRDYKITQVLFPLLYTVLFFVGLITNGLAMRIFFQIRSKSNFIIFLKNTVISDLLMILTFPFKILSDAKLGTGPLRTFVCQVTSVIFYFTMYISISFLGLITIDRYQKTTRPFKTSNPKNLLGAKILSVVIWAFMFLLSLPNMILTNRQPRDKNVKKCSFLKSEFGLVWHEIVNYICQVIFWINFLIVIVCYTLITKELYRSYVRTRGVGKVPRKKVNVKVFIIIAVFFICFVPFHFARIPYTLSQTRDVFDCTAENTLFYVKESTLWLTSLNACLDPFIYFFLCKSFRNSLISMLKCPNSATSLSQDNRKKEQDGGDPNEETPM
Chain of P2X2 (Q9UBL9 whole entry, species assumed): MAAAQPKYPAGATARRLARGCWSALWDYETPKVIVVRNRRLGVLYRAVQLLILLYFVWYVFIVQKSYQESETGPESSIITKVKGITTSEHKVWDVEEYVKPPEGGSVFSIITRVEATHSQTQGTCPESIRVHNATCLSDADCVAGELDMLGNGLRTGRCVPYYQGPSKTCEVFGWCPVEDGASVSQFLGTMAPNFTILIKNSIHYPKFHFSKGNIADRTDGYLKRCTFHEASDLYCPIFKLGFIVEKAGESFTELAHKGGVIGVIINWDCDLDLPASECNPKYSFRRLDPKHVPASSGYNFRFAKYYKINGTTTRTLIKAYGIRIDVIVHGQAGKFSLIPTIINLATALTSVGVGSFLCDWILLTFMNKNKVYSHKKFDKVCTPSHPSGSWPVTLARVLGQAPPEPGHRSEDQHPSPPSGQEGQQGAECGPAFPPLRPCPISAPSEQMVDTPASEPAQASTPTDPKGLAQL
Chain of hP2Y2 (P41231 whole entry): as the sequence (P41231 whole entry, species assumed) above
Chain of rP2Y6 (Q63371 whole entry): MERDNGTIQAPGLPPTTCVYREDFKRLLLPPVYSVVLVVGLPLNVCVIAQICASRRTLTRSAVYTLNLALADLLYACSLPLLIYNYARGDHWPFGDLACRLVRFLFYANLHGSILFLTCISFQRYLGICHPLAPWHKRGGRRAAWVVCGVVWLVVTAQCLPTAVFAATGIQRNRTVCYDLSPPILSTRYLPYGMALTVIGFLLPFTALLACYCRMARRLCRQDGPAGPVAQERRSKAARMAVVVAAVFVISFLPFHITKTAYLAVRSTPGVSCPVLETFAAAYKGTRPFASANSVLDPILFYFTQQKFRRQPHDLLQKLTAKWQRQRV
Chain of P2Y12 (Q9H244 whole entry, species assumed): as the sequence (Q9H244 whole entry) above

What is called Ki is a dissociation constant, usually derived from enzyme kinetics or from competition with a known ligand. In general, inhibition refers to the change of the read-out against control, counted positive when it falls. For `CCOP(=O)(OCC)C(NC(=O)CCNC(=O)[C@H]1O[C@@H](n2ccc(=O)[nH]c2=O)C(O)C1O)P(=O)(OCC)OCC` (stereo in doubt) [Compound 11, 3-[(2S,3R,4S,5R)-5-(2,4-Dioxo-3,4-dihydropyrimidin-1(2H)-yl)-3,4-dihydroxy-tetrahydrofurane-2-carboxamido]propaneamidomethylenediphosphonic acid tetraethylester], the values for the Ki in [1] and in data set [4] were 325 ± 25 µM and around 175 µM, respectively. In addition, the results for the inhibition at 100 µM in data set [2], in data set [3] and in [5] were 14 ± 2%, -12 ± 24% and 7 ± 20%, respectively. Besides, the inhibition at 1000 µM in [4] amounted to 51%. In data set [6], the inhibition at 10 µM worked out at 1 ± 5%.
On to `CCOP(=O)(OCC)C(NC(=O)CCCNC(=O)[C@H]1O[C@@H](n2ccc(=O)[nH]c2=O)C(O)C1O)P(=O)(OCC)OCC` (stereo in doubt) [Compound 12, 4-[(2S,3R,4S,5R)-5-(2,4-Dioxo-3,4-dihydropyrimidin-1(2H)-yl)-3,4-dihydroxytetrahydrofurane-2-carboxamido]butaneamidomethylenediphosphonic acid tetraethylester], for which the Ki in [1] was 32.4 ± 1.1 µM; in data set [4] it was around 165 µM. Also, the inhibition at 100 µM in [2] was 18 ± 4%; in data set [3] it was -44 ± 20%; in data set [5], 27 ± 7%. Moreover, the inhibition at 1000 µM in [4] turned out to be 54%. Further, the inhibition at 10 µM in data set [6] amounted to 1 ± 5%.
On to `CCN(CC)c1ncnc2c1ncn2C1OC(COP(=O)(O)OP(=O)(O)C(Br)(Br)P(=O)(O)O)C(O)C1O` (stereo not drawn) [ARL67156, N^6-Diethyl-β,γ-dibromomethylene-ATP], for which the “metabolic stability towards ecto-nucleotide pyrophosphatases (E-NPP)” value in [7] is “metabolically unstable”. Besides, the Ki is 112.1 ± 0.05 µM in [8], 27 ± 0.004 µM in data set [9] and above 600 µM in data set [10].
In the case of `Cc1nc(N=Nc2ccc(S(=O)(=O)O)cc2S(=O)(=O)O)c(COP(=O)(O)O)c(C=O)c1O` [PPADS, pyridoxalphosphate-6-azophenyl-2′,4′-disulfonic acid], the Ki in data set [11] was 0.13 µM; in data set [8], 3 ± 0.001 µM; in data set [9] it was 46 ± 0.01 µM; in [10], 44.2 ± 0.03 µM. In addition, in [12], the “P2Y2 Ki ± SEM [μM]” value is “inactive”. In addition, the “P2Y6 inhib. at 100 μM” value in data set [13] (100 μM) was 69%. In addition, the “P2Y4 inhib. at 100 μM” value in [14] (100 μM) is listed as 73%.
As for `Nc1c(S(=O)(=O)O)cc(Nc2ccc(Nc3nc(Cl)nc(Nc4cccc(S(=O)(=O)O)c4)n3)c(S(=O)(=O)O)c2)c2c1C(=O)c1ccccc1C2=O` [RB2, reactive blue 2], the Ki in data set [11] was 2 µM; in data set [12] it was 1 µM; in [15], 1.3 µM; in [16] it was 0.4 µM; in data set [13], 31 µM; in data set [14] (setting [19]) it was above 100 µM. Also, the Ki in [17] is 50 µM; in [18] it was 20 µM.
In the case of `Cc1ccc(C(=O)Nc2ccc(S(=O)(=O)O)c3cc(S(=O)(=O)O)cc(S(=O)(=O)O)c23)cc1NC(=O)c1cccc(NC(=O)Nc2cccc(C(=O)Nc3cc(C(=O)Nc4ccc(S(=O)(=O)O)c5cc(S(=O)(=O)O)cc(S(=O)(=O)O)c45)ccc3C)c2)c1` [Suramin, suramin], the Ki was 50 µM in [12]; 10 µM in [16]; above 100 µM in [13]; 12.7 ± 0.03 µM in data set [8]; 1.6 µM in data set [18]; 300 ± 0.1 µM in data set [9]. For the same compound, the Ki in data set [10] came out at 65.4 ± 0.01 µM. For the same compound, the “P2Y4 Ki ± SEM [μM]” value in data set [14] (setting [19]) is “inactive”.
